# Laboratory results reported in article PMC3433420 (PLoS ONE, 2012).
# Residues, ends and D or L forms follow the SMILES beside them.
# What was measured:
# Test in all cases: In-house protein microarrays (with or without 5 mM DTT), protein named per line
# Type in all cases: binding
# SH2 and PTB domains [1] = target: T1, SH2 and PTB domains (Homo sapiens, UniProt P08631); details: protein HCK
# T1 construct: thioredoxin; made in house; host or cells: BL21(DE3)pLysS E. coli
# In short: (§1)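 Recombinant domains (~40 µM) spotted in duplicate on aldehyde slides, quenched 1 h at room temperature in HEPES/KCl/Tween-20 buffer pH 7.8 with 5 mM DTT and 1% BSA, then probed with rhodamine-labeled peptide. Thioredoxin-subtracted mean fluorescence fitted for KD.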
# SH2 and PTB domains [2] = target: T2, SH2 and PTB domains (Homo sapiens, UniProt P20936)
# T2 construct: thioredoxin; made in house; host or cells: BL21(DE3)pLysS E. coli
# T2 sequence (P20936 1-1047): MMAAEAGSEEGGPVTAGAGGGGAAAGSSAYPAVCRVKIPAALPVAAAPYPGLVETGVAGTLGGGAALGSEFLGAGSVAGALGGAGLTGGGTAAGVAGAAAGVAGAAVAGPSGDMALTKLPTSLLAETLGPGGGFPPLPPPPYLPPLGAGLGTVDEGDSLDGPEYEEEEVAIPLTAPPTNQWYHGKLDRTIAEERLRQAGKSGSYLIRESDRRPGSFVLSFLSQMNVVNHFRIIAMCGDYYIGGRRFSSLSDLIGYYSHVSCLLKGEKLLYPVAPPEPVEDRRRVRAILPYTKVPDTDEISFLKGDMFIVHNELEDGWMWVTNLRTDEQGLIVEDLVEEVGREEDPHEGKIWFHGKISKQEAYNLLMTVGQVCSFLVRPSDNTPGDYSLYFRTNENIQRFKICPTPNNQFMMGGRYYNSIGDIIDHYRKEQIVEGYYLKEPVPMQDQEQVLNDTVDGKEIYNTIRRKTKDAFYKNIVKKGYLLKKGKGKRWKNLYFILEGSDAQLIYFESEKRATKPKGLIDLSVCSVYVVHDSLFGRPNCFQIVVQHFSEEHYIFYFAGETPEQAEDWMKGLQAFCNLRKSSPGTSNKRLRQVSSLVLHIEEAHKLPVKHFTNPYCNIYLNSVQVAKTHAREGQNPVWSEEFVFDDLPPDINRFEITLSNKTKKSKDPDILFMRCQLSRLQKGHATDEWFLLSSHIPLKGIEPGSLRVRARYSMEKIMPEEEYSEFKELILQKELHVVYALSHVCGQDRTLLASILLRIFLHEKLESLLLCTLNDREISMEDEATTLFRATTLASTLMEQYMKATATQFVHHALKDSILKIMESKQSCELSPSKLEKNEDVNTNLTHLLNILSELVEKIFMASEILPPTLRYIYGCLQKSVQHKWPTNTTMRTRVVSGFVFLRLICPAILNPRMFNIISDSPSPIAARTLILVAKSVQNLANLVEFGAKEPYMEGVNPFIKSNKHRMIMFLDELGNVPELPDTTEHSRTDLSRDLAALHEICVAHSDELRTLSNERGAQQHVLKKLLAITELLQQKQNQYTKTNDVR
# In short: as §1
# SH2 and PTB domains [3] = target: T3, SH2 and PTB domains (Homo sapiens, UniProt P52735); details: protein VAV2
# T3 construct: thioredoxin; made in house; host or cells: BL21(DE3)pLysS E. coli
# T3 sequence (P52735 1-878): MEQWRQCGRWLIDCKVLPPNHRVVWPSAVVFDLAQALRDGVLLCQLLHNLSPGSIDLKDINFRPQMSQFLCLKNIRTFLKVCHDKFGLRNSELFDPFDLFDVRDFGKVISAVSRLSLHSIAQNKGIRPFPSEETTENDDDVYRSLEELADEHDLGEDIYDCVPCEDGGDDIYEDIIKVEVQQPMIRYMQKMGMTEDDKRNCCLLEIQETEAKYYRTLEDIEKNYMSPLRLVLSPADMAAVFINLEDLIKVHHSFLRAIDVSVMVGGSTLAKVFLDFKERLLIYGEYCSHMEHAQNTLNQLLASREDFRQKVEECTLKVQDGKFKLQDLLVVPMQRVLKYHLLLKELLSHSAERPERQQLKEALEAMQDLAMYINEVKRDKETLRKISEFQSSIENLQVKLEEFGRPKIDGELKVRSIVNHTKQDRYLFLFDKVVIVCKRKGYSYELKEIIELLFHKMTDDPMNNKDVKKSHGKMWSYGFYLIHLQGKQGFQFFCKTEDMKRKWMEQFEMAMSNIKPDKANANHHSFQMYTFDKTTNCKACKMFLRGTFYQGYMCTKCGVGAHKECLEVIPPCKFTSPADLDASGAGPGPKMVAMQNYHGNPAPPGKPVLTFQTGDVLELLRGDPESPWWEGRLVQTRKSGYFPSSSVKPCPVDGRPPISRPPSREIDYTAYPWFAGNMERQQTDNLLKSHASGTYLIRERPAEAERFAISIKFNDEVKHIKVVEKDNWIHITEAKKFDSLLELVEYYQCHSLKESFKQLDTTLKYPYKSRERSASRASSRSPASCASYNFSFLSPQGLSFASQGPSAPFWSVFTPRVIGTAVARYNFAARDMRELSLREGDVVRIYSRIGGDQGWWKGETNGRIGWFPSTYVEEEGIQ
# In short: as §1
# SH2 and PTB domains [4] = target: T4, SH2 and PTB domains (Homo sapiens, UniProt Q96JZ2); details: protein HSH2D; PM assay replicate # 39307; array fabrication # 39286
# T4 construct: thioredoxin; made in house; host or cells: BL21(DE3)pLysS E. coli
# T4 sequence (Q96JZ2 whole entry, the tested form may be a part): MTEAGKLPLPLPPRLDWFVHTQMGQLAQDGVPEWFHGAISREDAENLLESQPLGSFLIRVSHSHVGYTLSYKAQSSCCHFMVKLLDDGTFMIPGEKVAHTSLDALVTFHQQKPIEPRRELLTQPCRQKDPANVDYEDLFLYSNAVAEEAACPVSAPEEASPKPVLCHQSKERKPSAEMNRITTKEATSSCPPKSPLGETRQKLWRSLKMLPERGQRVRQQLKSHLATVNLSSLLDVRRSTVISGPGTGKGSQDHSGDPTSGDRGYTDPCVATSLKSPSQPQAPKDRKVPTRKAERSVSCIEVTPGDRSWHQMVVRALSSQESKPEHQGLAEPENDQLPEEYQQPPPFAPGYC
# In short: as §1
# [5] = PM assay replicate # 39336, array fabrication # 39329
# [6] = PM assay replicate # 39337, array fabrication # 39329
# [7] = protein RASA1-NC, PM assay replicate # 39337, array fabrication # 39329
# [8] = PM assay replicate # 39307, array fabrication # 39286
# T1 sequence (P08631 whole entry, the tested form may be a part): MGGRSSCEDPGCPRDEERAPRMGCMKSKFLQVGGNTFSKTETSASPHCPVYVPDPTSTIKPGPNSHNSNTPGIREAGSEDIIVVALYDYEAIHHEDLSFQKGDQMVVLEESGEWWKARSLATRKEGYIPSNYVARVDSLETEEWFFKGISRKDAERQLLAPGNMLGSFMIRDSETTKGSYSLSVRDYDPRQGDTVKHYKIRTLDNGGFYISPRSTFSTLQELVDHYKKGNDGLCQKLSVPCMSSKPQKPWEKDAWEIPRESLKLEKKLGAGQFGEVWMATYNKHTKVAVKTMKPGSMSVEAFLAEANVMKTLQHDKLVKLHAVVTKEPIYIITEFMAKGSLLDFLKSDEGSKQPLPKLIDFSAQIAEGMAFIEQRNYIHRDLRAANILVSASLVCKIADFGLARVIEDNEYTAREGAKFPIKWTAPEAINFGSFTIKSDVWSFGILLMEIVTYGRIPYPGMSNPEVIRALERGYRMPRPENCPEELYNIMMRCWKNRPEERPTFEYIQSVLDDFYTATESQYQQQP
Structure (SMILES),Kd (SH2 and PTB domains [1]; [5]) [nM],Kd (SH2 and PTB domains [1]; [6]) [nM],"Kd (SH2 and PTB domains [2]; protein RASA1-C, PM assay replicate # 39337, array fabrication # 39329) [nM]","Kd (SH2 and PTB domains [2]; protein RASA1-N, PM assay replicate # 39336, array fabrication # 39329) [nM]","Kd (SH2 and PTB domains [2]; protein RASA1-N, PM assay replicate # 39337, array fabrication # 39329) [nM]","Kd (SH2 and PTB domains [2]; protein RASA1-NC, PM assay replicate # 39336, array fabrication # 39329) [nM]",Kd (SH2 and PTB domains [2]; [7]) [nM],"Kd (SH2 and PTB domains [2]; protein RASA1-NC, PM assay replicate # 39603, array fabrication # 39392) [nM]",Kd (SH2 and PTB domains [3]; [5]) [nM],Kd (SH2 and PTB domains [3]; [6]) [nM],"Kd (SH2 and PTB domains [2]; protein RASA1-N, PM assay replicate # 39307, array fabrication # 39286) [nM]",Kd (SH2 and PTB domains [3]; [8]) [nM],Kd (SH2 and PTB domains [4]) [nM],Kd (SH2 and PTB domains [1]; [8]) [nM]
CC(C)C[C@H](NC(=O)[C@@H]1CCCN1C(=O)[C@H](C)NC(=O)[C@@H](NC(=O)[C@H](Cc1ccc(OP(=O)(O)O)cc1)NC(=O)CNC(=O)[C@H](CC(=O)O)NC(=O)[C@@H](NC(=O)[C@@H](N)CCC(=O)O)[C@@H](C)O)C(C)C)C(=O)N[C@H](C(=O)N[C@@H](CS)C(=O)N[C@@H](CO)C(=O)N[C@@H](CC(=O)O)C(=O)O)[C@@H](C)O [ErbB2 pY1127],4360,250,1210,590,110,120,30,60,1590,170,–,–,–,–
CCN(CC)c1ccc2c(-c3ccc(C(=O)N[C@@H](CC(N)=O)C(=O)NCC(=O)N4CCC[C@H]4C(=O)N4CCC[C@H]4C(=O)N[C@@H](CCCCN)C(=O)N[C@@H](C)C(=O)N[C@@H](CCC(=O)O)C(=O)N[C@@H](CC(=O)O)C(=O)N[C@@H](CCC(=O)O)C(=O)N[C@@H](Cc4ccc(OP(=O)(O)O)cc4)C(=O)N[C@H](C(=O)N[C@@H](CC(N)=O)C(=O)N[C@@H](CCC(=O)O)C(=O)N4CCC[C@H]4C(=O)N[C@@H](CC(C)C)C(=O)N[C@@H](Cc4ccc(O)cc4)C(=O)N[C@@H](CC(C)C)C(=O)N[C@@H](CC(=O)O)C(=O)O)C(C)C)cc3C(=O)[O-])c3ccc(=[N+](CC)CC)cc-3oc2c1 [ErbB4 1202 (18-mer)] (HELM PEPTIDE1{[CCN(CC)c1ccc2c(-c3ccc(C(=O)[*:2])cc3C(=O)[O-])c3ccc(=[N+](CC)CC)cc-3oc2c1].N.G.P.P.K.A.E.D.E.[O=C([C@H](Cc1ccc(OP(=O)(O)O)cc1)N[*:1])[*:2]].V.N.E.P.L.Y.L.D}$$$$V2.0),–,–,–,–,–,–,8560,–,–,–,660,9500,970,–
CC[C@H](C)[C@H](NC(=O)[C@H](CC(N)=O)NC(=O)[C@H](CC(N)=O)NC(=O)[C@H](CCCCN)NC(=O)[C@H](CC(C)C)NC(=O)[C@H](Cc1ccc(OP(=O)(O)O)cc1)NC(=O)[C@H](CCC(=O)O)NC(=O)[C@H](C)NC(=O)[C@H](CCCCN)NC(=O)CNC(=O)[C@H](CC(C)C)NC(=O)[C@@H](NC(=O)[C@H](CC(N)=O)NC(=O)[C@H](C)NC(=O)[C@@H](N)Cc1ccccc1)[C@@H](C)O)C(=O)N[C@@H](CC(C)C)C(=O)N[C@@H](CO)C(=O)N[C@@H](CC(=O)O)C(=O)O [ErbB4 pY1221 (18-mer)] (HELM PEPTIDE1{F.A.N.T.L.G.K.A.E.[O=C([C@H](Cc1ccc(OP(=O)(O)O)cc1)N[*:1])[*:2]].L.K.N.N.I.L.S.D}$$$$V2.0),–,–,–,–,–,–,–,–,–,–,–,–,990,70
